Data: US10807959B2, “WDR5-MLL1 inhibitors and modulators” (Vanderbilt University, priority 2018, dated 2020)

What was measured:
WDR5 [1] = biological target: T1, WDR5 (Homo sapiens (Human), UniProt P61964); test: Fluorescence polarization anisotropy (FPA) competition assay, displacement of FITC-MLL or 10mer-Thr-FAM peptide; assay type: binding
From the text: The assay is run in 384-well format and is read on a BioTek Cytation. […] Replicate values are fit to a 4-parameter fit in XLFit to generate a single IC50 value for each compound that is then converted to a Ki value. Experiments are repeated to generate a 2nd, independent Ki value; values from the two experiments are averaged to produce the reported Ki value for the compound.

WDR5 [2] = biological target: T1, WDR5; test: TR-FRET binding assay, displacement of 10mer-Thr-FAM probe from His-tagged WDR5; conditions: Inhibition of WDR5 by TR-FRET assay
Description: The LanthaScreenTM Elite Tb-anti-HIS Antibody from ThermoFisher Scientific was used for this purpose. […] The ratio of the 520 and 495 signals are then utilized to generate a dose-response curve to calculate an IC50 value. […] WDR[…] tag protein is used at 2 nM.

[3] = Table C2, WDR5 WIN-site binding affinity, values not less than 1 nM (FPA)
[4] = Inhibition of WDR5 by FPA assay
[5] = Table B2, WDR5 WIN-site binding affinity, values not less than 1 nM (FPA)

For COc1cc(OC)cc(C(C)NC(=O)c2ccnc(CNC3=NCCC3)c2)c1 (stereo not drawn) [Example C35, 2-(((3,4-dihydro-2H-pyrrol-5-yl)amino)methyl)-N-(1-(3,5-dimethoxyphenyl)ethyl)isonicotinamide], which Ki (WDR5 [1]; [3]) is on record?
Its Ki is 44.1 nM.

COc1cc(OC)cc(C(C)NC(=O)c2cc(CNC3=NCCC3)ccn2)c1 (stereo not drawn) [Example C21, 4-(((3,4-dihydro-2H-pyrrol-5-yl)amino)methyl)-N-(1-(3,5-dimethoxyphenyl)ethyl)picolinamide] was tested. Which Ki (WDR5 [1]; [3]) did it give?
Its Ki is 33 nM.

Cc1cc(-c2cc(Cn3ccnc3)cc(C(=O)NCc3ccc(Cl)c(Cl)c3)c2)ccn1 [Example 123, 3-((1H-Imidazol-1-yl)methyl)-N-(3,4-dichlorobenzyl)-5-(2-methylpyridin-4-yl)benzamide] was tested. Which Ki (WDR5 [1]; [4]) did it give?
The Ki was 8.7 nM.

With COc1ccnc(CNC(=O)c2ccc(F)c(CNC3=NCCN3)c2)c1 [Example B22] as the compound, how does the Ki (WDR5 [1]; [5]) read?
Its Ki is 1.5 nM.

With COc1ccc(CNC(=O)c2cc(F)c(F)c(CNC3=NCCN3)c2)cc1Cl [Example B32] as the compound, how does the Ki (WDR5 [1]; [5]) read?
The Ki was 4.51 nM.

For O=C(NCc1ccc(Cl)c(Cl)c1)c1cccc(CNC2=NCCN2)c1 [Example B3], which Ki (WDR5 [1]; [5]) is on record?
The Ki was 209 nM.

With COc1ccnc(CNC(=O)c2cc(F)c(F)c(CNC3=NCCN3)c2)c1 [Example B34] as the compound, how does the Ki (WDR5 [1]; [5]) read?
Its Ki is 12 nM.

Which Ki (WDR5 [1]; [5]) does the source give for Cc1cc(-c2cc(CNC3=NCCN3)cc(C(=O)NCc3cccc(F)n3)c2)ccn1 [Example B95] here?
Its Ki is 6.1 nM.

For O=C(NCc1cc(Cl)cc(Cl)c1)c1cc(Cl)cc(CNC2=NCCN2)c1 [Example B9], which Ki (WDR5 [1]; [5]) is on record?
The Ki was 17.4 nM.

Which Ki (WDR5 [1]; [5]) does the source give for COc1cc(CNC(=O)c2cc(CNC3=NCCN3)ccc2F)cc(OC)c1 [Example B37] here?
Its Ki is 8.71 nM.

COc1cc(OC)cc(C(C)NC(=O)c2ccc(OC(C)C)c(CNC3=NCCN3)c2)c1 (stereo not drawn) [Example B52, 3-(((4,5-dihydro-1H-imidazol-2-yl)amino)methyl)-N-(1-(3,5-dimethoxyphenyl)ethyl)-4-isopropoxybenzamide] was tested. Which Ki (WDR5 [1]; [5]) did it give?
Its Ki is 33 nM.

COc1cc(OC)cc(C(C)NC(=O)c2cc(F)c(F)c(CNC3=NCCN3)c2)c1 (stereo not drawn) [Example B35] was tested. Which Ki (WDR5 [1]; [5]) did it give?
Its Ki is 4.22 nM.

With Cc1ccncc1-c1cc(Cn2ccnc2)cc(C(=O)NCc2ccc(Cl)c(Cl)c2)c1 [Example 121, 3-((1H-imidazol-1-yl)methyl)-N-(3,4-dichlorobenzyl)-5-(4-methylpyridin-3-yl)benzamide] as the compound, how does the Ki (WDR5 [1]; [4]) read?
Its Ki is 1.3 nM.

For Cc1nc(F)ccc1-c1cc(Cn2ccnc2)cc(C(=O)NC(C)C2CCCCC2)c1 (stereo not drawn) [Example 132, 3-((1H-Imidazol-1-yl)methyl)-N-(1-cyclohexylethyl)-5-(6-fluoro-2-methylpyridin-3-yl)benzamide], which Ki (WDR5 [1]; [4]) is on record?
Its Ki is 3.9 nM.

COc1cc(OC)cc(C(C)NC(=O)c2ccnc(CNC3=NCCN3)c2)c1 (stereo not drawn) [Example C34, 2-(((4,5-dihydro-1H-imidazol-2-yl)amino)methyl)-N-(1-(3,5-dimethoxyphenyl)ethyl)isonicotinamide] was tested. Which Ki (WDR5 [1]; [3]) did it give?
The Ki was 32.5 nM.

How did the Ki (WDR5 [1]; [5]) turn out when Cc1cc(C)nc(CNC(=O)c2ccc(F)c(CNC3=NCCN3)c2)n1 [Example B45] was run?
The Ki was 11.3 nM.

How did the Ki (WDR5 [1]; [5]) turn out when COc1cc(OC)cc(C(C)NC(=O)c2ccc(F)c(CNC3=NCCN3)c2)c1 (stereo not drawn) [Example B18] was run?
The Ki was 1.81 nM.

How did the Ki (WDR5 [1]; [5]) turn out when Cc1cc(C)cc(CNC(=O)c2cc(F)c(F)c(CNC3=NCCN3)c2)c1 [Example B31] was run?
The Ki was 8.11 nM.

For COc1cc(CNC(=O)c2ccc(OC)c(CNC3=NCCN3)c2)cc(OC)c1 [Example B27, 3-(((4,5-dihydro-1H-imidazol-2-yl)amino)methyl)-N-(3,5-dimethoxybenzyl)-4-methoxybenzamide], which Ki (WDR5 [1]; [5]) is on record?
Its Ki is 7.52 nM.

How did the Ki (WDR5 [1]; [5]) turn out when COc1ccc(C(=O)NCc2ccc(Cl)c(F)c2)cc1CNC1=NCCN1 [Example B41] was run?
The Ki was 1.76 nM.

With O=C(NCc1cc(Cl)cc(Cl)c1)c1cccc(CNC2=NCCN2)c1 [Example B1, N-(3,5-dichlorobenzyl)-3-(((4,5-dihydro-1H-imidazol-2-yl)amino)methyl)benzamide] as the compound, how does the Ki (WDR5 [1]; [5]) read?
The Ki was 18 nM.

With O=C(NCc1ccc(Cl)cn1)c1ccc(F)c(CNC2=NCCN2)c1 [Example B23] as the compound, how does the Ki (WDR5 [1]; [5]) read?
Its Ki is 30.3 nM.

Which Ki (WDR5 [1]; [5]) does the source give for Cc1ccc(CNC(=O)c2cc(Cl)cc(CNC3=NCCN3)c2)cc1Cl [Example B10] here?
Its Ki is 54.5 nM.

How did the Ki (WDR5 [1]; [4]) turn out when COc1cc(OC)cc(C(C)NC(=O)c2cc(Cn3ccnc3)cc(-c3ccc(F)cc3Cl)n2)c1 (stereo not drawn) [Example 154, 4-((1H-Imidazol-1-yl)methyl)-6-(2-chloro-4-fluorophenyl)-N-(1-(3,5-dimethoxyphenyl)ethyl)picolinamide] was run?
The Ki was 5.1 nM.

For COc1cc(OC)cc(C(C)NC(=O)c2cc(CNC3=NCCN3)c(F)cc2F)c1 (stereo not drawn) [Example B49], which Ki (WDR5 [1]; [5]) is on record?
Its Ki is 1.06 nM.

Which Ki (WDR5 [1]; [4]) does the source give for Cc1cc(CNC(=O)c2cc(Cn3ccnc3)cc(OC3CCCC3)c2)ccc1Cl [Example 115, 3-((1H-Imidazol-1-yl)methyl)-N-(4-chloro-3-methylbenzyl)-5-(cyclopentyloxy)benzamide] here?
Its Ki is 3.5 nM.

With COc1ncc(Cl)cc1-c1cc(CNC2=NCCN2)cc(C(=O)NCc2ccc(Cl)c(Cl)c2)n1 [Example 86, 5′-Chloro-N-(3,4-dichlorobenzyl)-4-(((4,5-dihydro-1H-imidazol-2-yl)amino)methyl)-2′-methoxy-[2,3′-bipyridine]-6-carboxamide] as the compound, how does the Ki (WDR5 [2]) read?
Its Ki is < 0.1 nM.

With Cc1ccncc1-c1cc(CNC2=NCCN2)cc(C(=O)NCc2ccc(Cl)c(Cl)c2)n1 [Example 81, N-(3,4-Dichlorobenzyl)-4-(((4,5-dihydro-1H-imidazol-2-yl)amino)methyl)-4′-methyl-[2,3′-bipyridine]-6-carboxamide] as the compound, how does the Ki (WDR5 [2]) read?
Its Ki is 0.24 nM.

How did the Ki (WDR5 [2]) turn out when Cc1cnccc1-c1cc(CNC2=NCCN2)cc(C(=O)NCc2ccc(Cl)c(Cl)c2)n1 [Example 84, N-(3,4-Dichlorobenzyl)-4-(((4,5-dihydro-1H-imidazol-2-yl)amino)methyl)-3′-methyl-[2,4′-bipyridine]-6-carboxamide] was run?
Its Ki is 0.15 nM.

With COc1cc(CNC(=O)c2cc(Cn3ccnc3)cc(-c3ccc(=O)[nH]c3)c2)cc(OC)c1 [Example 145, 3-((1H-Imidazol-1-yl)methyl)-N-(3,5-dimethoxybenzyl)-5-(6-oxo-1,6-dihydropyridin-3-yl)benzamide] as the compound, how does the Ki (WDR5 [2]) read?
The Ki was 22 nM.

With O=C(NCc1ccc(Cl)c(Cl)c1)c1cc(Cn2ccnc2)cc(OC2CCC2)c1 [Example 142, 3-((1H-Imidazol-1-yl)methyl)-5-cyclobutoxy-N-(3,4-dichlorobenzyl)benzamide] as the compound, how does the Ki (WDR5 [2]) read?
The Ki was 0.59 nM.

CCn1cc(-c2cc(CNC(=N)C3CCOC3)cc(C(=O)N[C@H](c3ccc(F)c(C)c3)C3CC3)c2)c(C(F)(F)F)n1 (stereo partly drawn) [Example 108, N—((S)-Cyclopropyl(4-fluoro-3-methylphenyl)methyl)-3-(1-ethyl-3-(trifluoromethyl)-1H-pyrazol-4-yl)-5-((tetrahydrofuran-3-carboximidamido)methyl)benzamide] was tested. Which Ki (WDR5 [2]) did it give?
Its Ki is 2 nM.

Cc1ccncc1-c1cc(CNC2=NCCN2)cc(C(=O)NCc2cc(F)cc(Cl)c2)c1 [Example 24, N-(3-chloro-5-fluorobenzyl)-3-(((4,5-dihydro-1H-imidazol-2-yl)amino)methyl)-5-(4-methylpyridin-3-yl)benzamide] was tested. Which Ki (WDR5 [2]) did it give?
Its Ki is 0.37 nM.

For COc1ccnc(CNC(=O)c2cc(CNC3=NCCN3)cc(-c3cc(C(F)(F)F)cnc3OC)c2)c1 [Example 46, 3-(((4,5-dihydro-1H-imidazol-2-yl)amino)methyl)-5-(2-methoxy-5-(trifluoromethyl)pyridin-3-yl)-N-((4-methoxypyridin-2-yl)methyl)benzamide], which Ki (WDR5 [2]) is on record?
Its Ki is 0.1 nM.

How did the Ki (WDR5 [2]) turn out when Cc1cccc(Oc2cc(CNC3=NCCN3)cc(C(=O)NCc3ccc(Cl)c(Cl)c3)c2)c1 [Example 32, N-(3,4-Dichlorobenzyl)-3-(((4,5-dihydro-1H-imidazol-2-yl)amino)methyl)-5-(m-tolyloxy)benzamide] was run?
The Ki was 0.91 nM.

Cc1cnc(CNC(=O)c2cc(CNC3=NCCN3)cc(-c3ccc(F)nc3C)n2)cn1 [Example 76, 4-(((4,5-Dihydro-1H-imidazol-2-yl)amino)methyl)-6′-fluoro-2′-methyl-N-((5-methylpyrazin-2-yl)methyl)-[2,3′-bipyridine]-6-carboxamide] was tested. Which Ki (WDR5 [2]) did it give?
The Ki was 32 nM.

How did the Ki (WDR5 [2]) turn out when Cc1nc(F)ccc1-c1cc(Cn2ccnc2C2CC2)cc(C(=O)NCc2ccc(Cl)c(Cl)c2)c1 [Example 139, 3-((2-Cyclopropyl-1H-imidazol-1-yl)methyl)-N-(3,4-dichlorobenzyl)-5-(6-fluoro-2-methylpyridin-3-yl)benzamide] was run?
Its Ki is 1.6 nM.

Which Ki (WDR5 [2]) does the source give for COc1ccnc(CNC(=O)c2cc(CNC(=N)N)cc(-c3ccnc(C)c3)c2)c1 [Example 102, 3-(Guanidinomethyl)-N-((4-methoxypyridin-2-yl)methyl)-5-(2-methylpyridin-4-yl)benzamide] here?
The Ki was 1 nM.

For COc1cc(CNC(=O)c2cc(CNC3=NCCN3)cc(-c3cnccc3C)c2)cc(OC)c1 [Example 13, 3-(((4,5-dihydro-1H-imidazol-2-yl)amino)methyl)-N-(3,5-dimethoxybenzyl)-5-(4-methylpyridin-3-yl)benzamide], which Ki (WDR5 [2]) is on record?
Its Ki is 0.53 nM.

How did the Ki (WDR5 [2]) turn out when COc1ccnc(CNC(=O)c2cc(CNC3=NCCC3)cc(-c3ccc(F)cc3C(F)(F)F)n2)c1 [Example 94, 4-(((3,4-dihydro-2H-pyrrol-5-yl)amino)methyl)-6-(4-fluoro-2-(trifluoromethyl)phenyl)-N-((4-methoxypyridin-2-yl)methyl)picolinamide] was run?
Its Ki is 1.2 nM.

How did the Ki (WDR5 [2]) turn out when Cc1nc(F)ccc1-c1cc(CNC2=NCCN2)cc(C(=O)NCc2ccc(Cl)c(F)c2)n1 [Example 73, N-(4-Chloro-3-fluorobenzyl)-4-(((4,5-dihydro-1H-imidazol-2-yl)amino)methyl)-6′-fluoro-2′-methyl-[2,3′-bipyridine]-6-carboxamide] was run?
The Ki was 0.43 nM.

Cc1nc(F)ccc1-c1cc(CNC2=NCCN2)cc(C(=O)NCc2ccc(=O)[nH]c2)n1 [Example 98, 4-(((4,5-dihydro-1H-imidazol-2-yl)amino)methyl)-6′-fluoro-2′-methyl-N-((6-oxo-1,6-dihydropyridin-3-yl)methyl)-[2,3′-bipyridine]-6-carboxamide] was tested. Which Ki (WDR5 [2]) did it give?
Its Ki is 23 nM.
